# Source: patent EP0264138B1, “Novel compound DC-102 and process for production thereof” (KYOWA HAKKO KOGYO CO., LTD., priority 1986, dated 1988)
# System: lymphocytic leukemia P388
# Assay: Therapeutical effect against lymphocytic leukemia P388
# Format: in vivo, male CDF₁ mice
# Details: dose 6 mg/kg intraperitoneally
# Method: Five male CDF₁ mice each having a weight of about 22 g were used for each group as test animals, and 1 x 10⁶ cells of lymphocytic leukemia P388 were implanted intraperitoneally in the test animals. 24 hours after implantation, 0.2 mℓ of a phosphate buffer saline (hereinafter referred to as PBS) containing DC-102 was intraperitoneally administered. For comparison, 0.2 mℓ of PBS solution containing mitomycin C was intraperitoneally administered 24 hours after implantation of the tumor cells. The mean survival time (MST) after implantation and increased life span (ILS) represented by T/C (T: MST for test groups; C: MST for control group) are shown in Table 3.
smiles,measurement,setting,value
"CO[C@@]12[C@H](COC(N)=O)C3=C(C(=O)C(C)=C(N)C3=O)N1C[C@@H]1N[C@@H]12 [Mitomycin C, mitomycin C]",MST,24 hours after implantation of 1 x 10⁶ P388 cells,17.2 days
same,ILS (T/C),"T: MST for test groups, C: MST for control group",166
